This passage reports melting point results from article PMC6264224, “A Practical Approach to New (5Z) 2-Alkylthio-5-arylmethylene-1-methyl-1,5-dihydro-4H-imidazol-4-one Derivatives” (Molecules, 2011).

Regarding `COc1ccc(/C=C2/C(=O)NC(=S)N2C)cc1O` [4d, (5Z)-5-(3-Hydroxy-4-methoxybenzylidene)-1-methyl-2-thioxoimidazolidin-4-one], the melting point (in general, the temperature of the solid-liquid transition) lay in the range of 203 to 205 °C.
